Assay results taken from patent US4942155A, “Biosynthetic anthracyclines related to daunorubicin” (Farmitalia Carlo Erba S.p.A., priority 1986, dated 1990).
≈ marks a conversion by molar mass, not a printed value.

How the values were obtained:
[1] = tested on: Gross leukemia; test: In vivo activity against Gross leukemia in mice; settings: for Toxic deaths: macroscopic autoptic findings; for MST (T/C %): median survival time, % of untreated controls
Experimental: ^(a) Mice were treated i.v. on day 1 after tumor cell i.v.
^(b) Injected as 1:9 Tween 80:water suspension
(§1) ^(c) Median survival time expressed as percentage of untreated
^(d) Evaluated on the basis of macroscopic autoptic findings.

[2] = tested on: HeLa cells; test: In vitro cytotoxicity on cultured HeLa cells; assay type: cell-based; settings: for IC50: Homo sapiens, exposed for 24 hr then plated, read-out: ID50 (the source's name)
From the text: (§2) The cytotoxic activity of the new anthracyclines, FCE 24366 and FCE 24367 have been tested in vitro on cultured HeLa cells, and P388 leukemia cells sensitive (P 388/S) or resistant (P 388/R) to doxorubicin.
^(a) Cells are exposed to the drugs for 24 hr then plated

[3] = tested on: P388 ascitic leukemia; test: In vivo activity against P388 ascitic leukemia in mice; settings: for Toxic deaths: macroscopic autopic findings; for MST (T/C %): median survival time, % of untreated controls; for in vivo activity compared with daunorubicin: P388 ascitic leukemia in mice, at dosage levels several times lower
Experimental: ^(a) Mice were treated i.p. on day 1 after tumor cell inoculation.
^(b) Injected as 1:9 Tween 80:water suspension.
as §1
^(d) Evaluated on the basis of macroscopic autopic findings.

[4] = tested on: P388/S leukemia cells; test: In vitro cytotoxicity on P388 leukemia cells sensitive to doxorubicin; assay type: cell-based; settings: for IC50: Mus musculus, exposed for 48 hr then plated, read-out: ID50 (the source's name)
From the text: as §2
(§3) ^(b) Cells are exposed to the drugs for 48 hr then plated

[5] = tested on: Klebeiella pneumoniae ATCC 10031; test: In vitro MIC, standard tube dilution; assay type: cell-based
From the text: (§4) The in vitro minimum inhibitory concentration (MIC) of FCE 24366, FCE 24367 and daunorubicin, determined for some microorganism using the standard tube dilution procedure, are reported in Table 4.

[6] = tested on: Staphylococcus aureus 209P; test: In vitro MIC, standard tube dilution; assay type: cell-based
From the text: as §4

[7] = tested on: Proteus morganii ATCC 25830; test: In vitro MIC, standard tube dilution; assay type: cell-based; settings: Morganella morganii, ATCC25830
From the text: as §4

[8] = tested on: Staphylococcus aureus 153; test: In vitro MIC, standard tube dilution; assay type: cell-based
From the text: as §4

[9] = tested on: Streptococcus pyogenes ATCC 12384; test: In vitro MIC, standard tube dilution; assay type: cell-based; settings: ATCC12384
From the text: as §4

[10] = tested on: Escherichia coli ATCC 11303; test: In vitro MIC, standard tube dilution; assay type: cell-based; settings: ATCC11303
From the text: as §4

[11] = tested on: Escherichia coli 026B6; test: In vitro MIC, standard tube dilution; assay type: cell-based
From the text: as §4

[12] = tested on: Sarcina lutea ATCC 9341; test: In vitro MIC, standard tube dilution; assay type: cell-based; settings: Micrococcus luteus, ATCC9341
From the text: as §4

[13] = tested on: Streptococcus faecalis ATCC 8043; test: In vitro MIC, standard tube dilution; assay type: cell-based; settings: Enterococcus faecalis, ATCC8043
From the text: as §4

[14] = tested on: P388/R leukemia cells; test: In vitro cytotoxicity on P388 leukemia cells resistant to doxorubicin; assay type: cell-based; settings: for IC50: Mus musculus, exposed for 48 hr then plated, read-out: ID50 (the source's name); for activity on P 388/R cell line: cross-resistant to most anthracyclines
From the text: as §2, §3

[15] = Stability in acidic media; assay type: physicochemical
[16] = Solubility; assay type: physicochemical
[17] = acetone, dioxane, N,N-dimethylformamide, N,N-dimethylsulfoxide
[18] = chloroform, dichloromethane, ethyl acetate, lower alcohols
[19] = ethyl ether, n-hexane, petroleum ether and water

COc1cccc2c1C(=O)c1c(O)c3c(c(O)c1C2=O)C[C@@](O)(C(C)=O)C[C@@H]3O[C@H]1C[C@H](N)[C@H](O)[C@H](C)O1 [Daunorubicin, daunorubicin]
Toxic deaths ([1]; 10 mg/Kg i.v. on day 1): 0/9
MST (T/C %) ([1]; 10 mg/Kg i.v. on day 1): 183%
Toxic deaths ([1]; 15 mg/Kg i.v. on day 1): 0/9
MST (T/C %) ([1]; 15 mg/Kg i.v. on day 1): 217%
Toxic deaths ([1]; 22.5 mg/Kg i.v. on day 1): 9/9
MST (T/C %) ([1]; 22.5 mg/Kg i.v. on day 1): 83%
IC50 [2]: 19 ng/mL (≈ 0.036 µM)
Toxic deaths ([3]; 2.9 mg/Kg i.p. on day 1): 0/10
MST (T/C %) ([3]; 2.9 mg/Kg i.p. on day 1): 160%
Toxic deaths ([3]; 4.4 mg/Kg i.p. on day 1): 7/10
MST (T/C %) ([3]; 4.4 mg/Kg i.p. on day 1): 150%
IC50 [4]: 9.5 ng/mL (≈ 0.018 µM)
MIC [5]: > 100 µg/mL
MIC [6]: 6.25 µg/mL (≈ 11.8 µM)
MIC [7]: > 100 µg/mL
MIC [8]: 25 µg/mL (≈ 47.4 µM)
MIC [9]: 3.12 µg/mL (≈ 5.91 µM)
MIC [10]: 3.12 µg/mL (≈ 5.91 µM)
MIC [11]: 6.25 µg/mL (≈ 11.8 µM)
MIC [12]: 1.56 µg/mL (≈ 2.96 µM)
MIC [13]: > 100 µg/mL
IC50 [14]: 0.75 µg/mL (≈ 1.42 µM)

COc1cccc2c1C(=O)c1c(O)c3c(c(O)c1C2=O)C[C@@](O)(C(C)=O)C[C@@H]3O[C@H]1C[C@@H]2NC(C3C(=O)N(C)C(=O)N(C)C3=O)C(C)OC(CC(C)O)O[C@@H]2[C@H](C)O1 (some centres unmarked) [FCE 24366]
Toxic deaths ([1]; 0.13 mg/Kg i.v. on day 1): 0/9
MST (T/C %) ([1]; 0.13 mg/Kg i.v. on day 1): 117%
Toxic deaths ([1]; 0.20 mg/Kg i.v. on day 1): 0/8
MST (T/C %) ([1]; 0.20 mg/Kg i.v. on day 1): 192%
Toxic deaths ([1]; 0.30 mg/Kg i.v. on day 1): 2/9
MST (T/C %) ([1]; 0.30 mg/Kg i.v. on day 1): 150%
activity against Gross leukemia compared with daunorubicin ([1]; Gross leukemia in mice): activity comparable with that of daunorubicin at remarkably lower dosages
cytotoxic dosage level compared with daunorubicin [2]: several times lower than those of daunorubicin
IC50 [2]: 0.09 ng/mL (≈ 0.000111 µM)
stability [15]: unstable
solubility [16, 17]: soluble
solubility [16, 18]: slightly soluble
solubility [16, 19]: barely soluble or insoluble
Toxic deaths ([3]; 0.012 mg/Kg i.p. on day 1): 0/10
MST (T/C %) ([3]; 0.012 mg/Kg i.p. on day 1): 130%
Toxic deaths ([3]; 0.025 mg/Kg i.p. on day 1): 0/10
MST (T/C %) ([3]; 0.025 mg/Kg i.p. on day 1): 135%
Toxic deaths ([3]; 0.05 mg/Kg i.p. on day 1): 0/10
MST (T/C %) ([3]; 0.05 mg/Kg i.p. on day 1): 150%
Toxic deaths ([3]; 0.1 mg/Kg i.p. on day 1): 1/10
MST (T/C %) ([3]; 0.1 mg/Kg i.p. on day 1): 165%
in vivo activity compared with daunorubicin [3]: as active as daunorubicin
cytotoxic dosage level compared with daunorubicin [4]: several times lower than those of daunorubicin
IC50 [4]: 0.036 ng/mL (≈ 4.45e-05 µM)
MIC [5]: 0.78 µg/mL (≈ 0.963 µM)
MIC [6]: 0.78 µg/mL (≈ 0.963 µM)
MIC [7]: 12.5 µg/mL (≈ 15.4 µM)
MIC [8]: 0.78 µg/mL (≈ 0.963 µM)
MIC [9]: 3.12 µg/mL (≈ 3.85 µM)
MIC [10]: 0.39 µg/mL (≈ 0.482 µM)
MIC [11]: 1.56 µg/mL (≈ 1.93 µM)
MIC [12]: 0.19 µg/mL (≈ 0.235 µM)
MIC [13]: 12.5 µg/mL (≈ 15.4 µM)
IC50 [14]: 0.0012 µg/mL (≈ 0.00148 µM)
activity on P 388/R cell line [14]: high activity

COc1cccc2c1C(=O)c1c(O)c3c(c(O)c1C2=O)C[C@@](O)(C(C)=O)C[C@@H]3O[C@H]1C[C@@H]2NC(C3C(=O)NC(=S)NC3=O)C(C)OC(CC(C)O)O[C@@H]2[C@H](C)O1 (some centres unmarked) [FCE 24367]
cytotoxic dosage level compared with daunorubicin [2]: several times lower than those of daunorubicin
IC50 [2]: 0.7 ng/mL (≈ 0.000877 µM)
stability [15]: unstable
solubility [16, 17]: soluble
solubility [16, 18]: slightly soluble
solubility [16, 19]: barely soluble or insoluble
Toxic deaths ([3]; 0.3 mg/Kg i.p. on day 1): 0/10
MST (T/C %) ([3]; 0.3 mg/Kg i.p. on day 1): 145%
Toxic deaths ([3]; 0.45 mg/Kg i.p. on day 1): 1/10
MST (T/C %) ([3]; 0.45 mg/Kg i.p. on day 1): 150%
Toxic deaths ([3]; 0.68 mg/Kg i.p. on day 1): 1/10
MST (T/C %) ([3]; 0.68 mg/Kg i.p. on day 1): 155%
in vivo activity compared with daunorubicin [3]: as active as daunorubicin
cytotoxic dosage level compared with daunorubicin [4]: several times lower than those of daunorubicin
IC50 [4]: 0.003 ng/mL (≈ 3.76e-06 µM)
MIC [5]: 25 µg/mL (≈ 31.3 µM)
MIC [6]: 6.25 µg/mL (≈ 7.83 µM)
MIC [7]: 100 µg/mL (≈ 125 µM)
MIC [8]: 6.25 µg/mL (≈ 7.83 µM)
MIC [9]: 6.25 µg/mL (≈ 7.83 µM)
MIC [10]: 3.12 µg/mL (≈ 3.91 µM)
MIC [11]: 12.5 µg/mL (≈ 15.7 µM)
MIC [12]: 0.78 µg/mL (≈ 0.978 µM)
MIC [13]: 100 µg/mL (≈ 125 µM)
IC50 [14]: 0.0038 µg/mL (≈ 0.00476 µM)
activity on P 388/R cell line [14]: high activity
